Data on one compound can be found in patent US20260274869A1, “PREPARATION METHODS OF ETHER-BONDED PORPHYRIN DIMER ESTER AND SINOPORPHYRIN SODIUM, PHARMACEUTICAL COMPOSITIONS CONTAINING THEM AND THEIR USES” (SHANGHAI GUANGSHENG BIOPHARMACEUTICAL CO., LTD, priority 2024, published 2026).

The nature of this series: storage stability / shelf life of sinoporphyrin sodium prepared by the method. The class given is physicochemical. The following applies: sinoporphyrin sodium prepared by the disclosed method; storage conditions not given.

As for `C=Cc1c(C)c2cc3nc(cc4nc(cc5[nH]c(cc1[nH]2)c(C)c5C(C)OC(C)c1c(C)c2cc5[nH]c(cc6nc(cc7nc(cc1[nH]2)C(C)=C7CCC(=O)[O-])C(CCC(=O)[O-])=C6C)c(C)c5C=C)C(C)=C4CCC(=O)[O-])C(CCC(=O)[O-])=C3C.[Na+].[Na+].[Na+].[Na+]` (centres unmarked) [sinoporphyrin sodium, bis[1-[6,7-dipropionatesodium salt-1,3,5,8-tetramethyl-2-vinyl-4-porphyrin]ethyl] ether], the “purity with the extension of storage time (storage stability)” value is “does not decrease significantly” and the shelf life entry was “more than 24 months”.
